Entries after “also recorded” stand apart in the source; their conditions may differ.
Columns and labels:
[1] = tested on: leaf discs of lettuce; assay: chlorogenic acid assay on leaf discs; format: cell-based
Description: Leaf discs of lettuce were incubated with 10 mM chlorogenic acid on filter paper.

[2] = tested on: germinated seeds of lettuce; assay: L-DOPA assay on germinated seeds
Description: Germinated seeds of lettuce were incubated with L-DOPA. […] This colour reaction can be used for screening seeds that show a reduced discolouration.

[3] = tested on: seeds of eggplant; assay: L-DOPA assay on seeds
Description: (§1) Seeds of lettuce and eggplant were incubated with 0, 2.5 and 5 mM L-DOPA. […] The response is PPO-dependent because it can be inhibited with L-cysteine.

[4] = tested on: seeds of lettuce; assay: L-DOPA assay on seeds
Description: as §1

[5] = tested on: PPO; assay: L-DOPA leaf disc assay: black discolouration (melanin) at wound surface; format: cell-based, lettuce
Description: In addition to assays which address wound-induced discolouration in a broad sense, the method according to this invention also allows to screen in a more specific manner for mutants which have a reduced PPO activity. A phenotypic assay which is indicative for PPO activity was developed by using leaf discs which were incubated in the presence of 1.5 mM L-DOPA. […] Furthermore, it was shown that the reaction can be inhibited by adding 1 mM L-cysteine during the reaction (FIG. 5). Therefore, this assay enabled the identification of mutants which are modified in the ability to mount a PPO activity at a wound surface of a leaf. The response of lettuce leaf discs to the presence of L-DOPA can be observed both in solution as well as between wetted filter papers as shown in FIG. 13.

[6] = tested on: lettuce leaf discs; assay: leaf disc pinking assay: wound-induced pink discolouration between wetted filter papers; format: cell-based; conditions: for concentration at which the pink discolouration was completely inhibited: applied during the assay, 5° C. for 7 days; for effect on formation of the pink dye (pinking response): applied during the reaction
Description: A phenotypic assay was developed in which leaf discolouration of lettuce induced by wounding can readily be assessed. This approach allows young plant screening for discolouration. Leaf discs of 5 mm diameter were taken from young or mature plants and placed between wetted filter papers in a tray. The system was incubated at 5° C. for 7 days. During the incubation a pink dye developed at the wound site of the leaf disc which became clearly visible as a printed circle on the filter paper (FIG. 2).

[7] = tested on: lettuce seeds; assay: catechol assay on seeds
Description: Lettuce seeds were incubated with 0, 100, 250, 500, 750 and 1000 mg/L catechol.

[8] = treatment of the formed pink dye after the wound response was completed; set-up: species or system lettuce; conditions: added after the wound response was completed; 0-10 mM series for L-cysteine
Description: (§2) As L-cysteine is known to react with o-quinones, which are PPO products, by converting them back into colourless diphenols, the effects of L-cysteine on the pink dye coming from lettuce leaf discs was determined. In parallel the effect of L-cysteine was determined on the melanin formation upon incubation with L-DOPA. Leaf discs were taken and incubated according to the procedures described above. After the wound response was completed, a concentration series of L-cysteine was added to the leaf disc and the change in colour was monitored.

[9] = treatment of melanin formed in the L-DOPA assay after the response was completed; set-up: species or system lettuce; conditions: added after the response was completed; 0-10 mM series
Description: as §2

[10] = tested on: field-grown lettuce plant showing severe pinking symptoms; assay: pinking of leaf discs from field-grown lettuce; conditions: 1 mM, approximately 30 minutes at room temperature
Description: This is typically observed when plants have been stressed, for example by conditions of severe water logging. The leaf was used to prepare leaf discs which were incubated immediately by 1 mM L-cysteine.

[11] = tested on: lettuce outer leaf midrib tissue discs; assay: midrib disc / cut leaf browning assay; format: cell-based
Description: A further embodiment of this invention is based on the following experiment. Parts of a lettuce leaf of a head are produced by cutting and incubated at 16° C. in air. As a response the wound surface turns brown after approximately 4 days. Especially at the wound surface of the main vein the browning can clearly be observed. Furthermore, the browning reaction can also be observed at the whole plant level upon damaging leaves by cutting or abrasion. Lettuce plants were grown to maturity and parts of outer leaves were taken by cutting discs from the rib tissue. The discs were incubated on wetted filter paper at 16° C. After approximately 72 hours, the wound surface had turned brown.

Question: With `O=C(/C=C/c1ccc(O)c(O)c1)O[C@@H]1C[C@](O)(C(=O)O)C[C@@H](O)[C@H]1O` [chlorogenic acid] as the compound, how does the “discolouration of discs on incubation with the substrate” value ([1]; 10 mM on filter paper) read?
Answer: browning

Question: What does the source list for `N[C@@H](Cc1ccc(O)c(O)c1)C(=O)O` [L-DOPA, L-3,4-dihydroxyphenylalanine]?
Answer: colour reaction of seed coat and root zone with the substrate [2]: show a colour reaction; colour reaction of seeds with the substrate ([3]; 0, 2.5 and 5 mM): concentration dependent; colour reaction of seeds with the substrate ([4]; 0, 2.5 and 5 mM): concentration dependent; discolouration at the wound surface on incubation with the substrate ([5]; 1.5 mM L-DOPA): dark brown to black discolouration

Question: Which results are given for `N[C@@H](CS)C(=O)O` [L-cysteine]?
Answer: effect on chlorogenic acid induced colour ([1]; added to discs incubated with 10 mM chlorogenic acid): the colour disappeared again; concentration at which the pink discolouration was completely inhibited [6]: ≥ 0.001%; effect on formation of the pink dye (pinking response) [6]: strongly suppressed; effect on catechol colour response of seeds [7]: inhibited; effect on the already formed pink dye [8]: converting the pink dye back into a colourless compound; also recorded: converted into a colourless compound; effect on L-DOPA colour response of seeds [3]: inhibited; effect on L-DOPA colour response of seeds [4]: inhibited; effect on already formed black melanin [9]: not affected; effect on pink discolouration of field-grown leaf material [10]: pink discolouration disappeared; also recorded: eliminated; effect on black L-DOPA discolouration ([5]; applied simultaneously with L-DOPA): completely inhibited; effect on browning response of midrib discs ([11]; 10 mM, 16° C., approximately 72 hours): inhibited; effect on wound-induced browning reactions (cut leaf parts, whole plant) ([11]; 16° C. in air, concentration not given): completely be inhibited

Question: With `C[C@H](N)C(=O)O` [L-alanine] as the compound, how does the “effect on formation of the pink dye (pinking response)” value (“effect on formation of the pink dye” below) [6] read?
Answer: did not show any effect

Question: With `Oc1ccccc1O` [catechol] as the compound, how does the “colour response of seeds with the substrate” value ([7]; 0, 100, 250, 500, 750 and 1000 mg/L) read?
Answer: concentration dependent colour response

Question: With `O=CC=Cc1ccccc1` [cinnamaldehyde] as the compound, how does the “concentration at which the pink discolouration was completely inhibited” value [6] read?
Answer: ≥ 0.01%

Question: And the “effect on formation of the pink dye” value [6]?
Answer: inhibited

Question: Which “effect on the already formed pink dye” value [8] does the source give for `N[C@@H](CCC(=O)N[C@@H](CS)C(=O)NCC(=O)O)C(=O)O` [glutathion] here?
Answer: convert the pink dye into a colourless compound

Question: With `O=C1O[C@H]([C@@H](O)CO)C(O)=C1O` [ascorbic acid] as the compound, how does the “effect on the already formed pink dye” value [8] read?
Answer: convert the pink dye into a colourless compound

Question: With `CC(C)C[C@H](N)C(=O)O` [L-leucine] as the compound, how does the “effect on formation of the pink dye” value [6] read?
Answer: did not show any effect

From patent publication US20130237452A1, “Screening method for selecting plants that show a reduced wound-induced surface discolouration” (RIJK ZWAAN ZAADTEELT EN ZAADHANDEL B.V., priority 2006, published 2013)
